# Assay results published in PubChem BioAssay (NCI).
#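 Tested at 5 concentrations; 48 h exposure; 96-well plates; endpoints linearly interpolated, else capped at highest concentration. TGI marks complete inhibition of growth.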
# Experiments:
# Experiment in all cases: NCI tumour cell line growth inhibition, 48 h
# 786-0 renal = system: 786-0 renal
# A549 NSCLC = system: A549 NSCLC
# ACHN renal = system: ACHN renal
# BT-549 breast = system: BT-549 breast
# CAKI-1 renal = system: CAKI-1 renal
# CCRF-CEM leukemia = system: CCRF-CEM leukemia
# COLO 205 colon = system: COLO 205 colon
# DU-145 prostate = system: DU-145 prostate
# EKVX NSCLC = system: EKVX NSCLC
# HCC-2998 colon = system: HCC-2998 colon
# HCT-116 colon = system: HCT-116 colon
# HCT-15 colon = system: HCT-15 colon
# HL-60(TB) leukemia = system: HL-60(TB) leukemia
# HOP-62 NSCLC = system: HOP-62 NSCLC
# HOP-92 NSCLC = system: HOP-92 NSCLC
# HS 578T breast = system: HS 578T breast
# HT29 colon = system: HT29 colon
# IGROV1 ovarian = system: IGROV1 ovarian
# K-562 leukemia = system: K-562 leukemia
# KM12 colon = system: KM12 colon
# LOX IMVI melanoma = system: LOX IMVI melanoma
# M14 melanoma = system: M14 melanoma
# MALME-3M melanoma = system: MALME-3M melanoma
# MCF7 breast = system: MCF7 breast
# MDA-MB-435 = system: MDA-MB-435
# MDA-N = system: MDA-N
# MOLT-4 leukemia = system: MOLT-4 leukemia
# NCI-H226 lung = system: NCI-H226 lung
# NCI-H23 lung = system: NCI-H23 lung
# NCI-H460 lung = system: NCI-H460 lung
# NCI-H522 lung = system: NCI-H522 lung
# NCI/ADR-RES ovarian = system: NCI/ADR-RES ovarian
# OVCAR-3 ovarian = system: OVCAR-3 ovarian
# OVCAR-4 ovarian = system: OVCAR-4 ovarian
# OVCAR-5 ovarian = system: OVCAR-5 ovarian
# OVCAR-8 ovarian = system: OVCAR-8 ovarian
# PC-3 prostate = system: PC-3 prostate
# RPMI-8226 leukemia = system: RPMI-8226 leukemia
# RXF 393 renal = system: RXF 393 renal
# SF-268 CNS = system: SF-268 CNS
# SF-295 CNS = system: SF-295 CNS
# SF-539 CNS = system: SF-539 CNS
# SK-MEL-2 melanoma = system: SK-MEL-2 melanoma
# SK-MEL-5 melanoma = system: SK-MEL-5 melanoma
# SK-OV-3 ovarian = system: SK-OV-3 ovarian
# SN12C renal = system: SN12C renal
# SNB-19 CNS = system: SNB-19 CNS
# SR leukemia = system: SR leukemia
# SW-620 colon = system: SW-620 colon
# T-47D breast = system: T-47D breast
# TK-10 renal = system: TK-10 renal
# U251 CNS = system: U251 CNS
# UACC-257 melanoma = system: UACC-257 melanoma
# UACC-62 melanoma = system: UACC-62 melanoma
# UO-31 renal = system: UO-31 renal
# A498 renal = system: A498 renal
# MDA-MB-231 breast = system: MDA-MB-231 breast
# SK-MEL-28 melanoma = system: SK-MEL-28 melanoma
# SNB-75 CNS = system: SNB-75 CNS
smiles,measurement,setting,value
Cc1ccc(O)c(C2=CC(c3cccc(Cl)c3)SC(N)=N2)c1 (centres undefined),TGI,786-0 renal,> 100 µM
same,TGI,A549 NSCLC,62.9 µM
same,TGI,ACHN renal,54.4 µM
same,TGI,BT-549 breast,85 µM
same,TGI,CAKI-1 renal,> 100 µM
same,TGI,CCRF-CEM leukemia,83.1 µM
same,TGI,COLO 205 colon,39.8 µM
same,TGI,DU-145 prostate,> 100 µM
same,TGI,EKVX NSCLC,61.8 µM
same,TGI,HCC-2998 colon,33.4 µM
same,TGI,HCT-116 colon,39.7 µM
same,TGI,HCT-15 colon,38.2 µM
same,TGI,HL-60(TB) leukemia,61.6 µM
same,TGI,HOP-62 NSCLC,64.1 µM
same,TGI,HOP-92 NSCLC,42.9 µM
same,TGI,HS 578T breast,47.9 µM
same,TGI,HT29 colon,46.3 µM
same,TGI,IGROV1 ovarian,46.5 µM
same,TGI,K-562 leukemia,55.5 µM
same,TGI,KM12 colon,89.6 µM
same,TGI,LOX IMVI melanoma,34.7 µM
same,TGI,M14 melanoma,68.3 µM
same,TGI,MALME-3M melanoma,62.5 µM
same,TGI,MCF7 breast,> 100 µM
same,TGI,MDA-MB-435,37.1 µM
same,TGI,MDA-N,39.7 µM
same,TGI,MOLT-4 leukemia,61.4 µM
same,TGI,NCI-H226 lung,38.9 µM
same,TGI,NCI-H23 lung,80.1 µM
same,TGI,NCI-H460 lung,64 µM
same,TGI,NCI-H522 lung,34 µM
same,TGI,NCI/ADR-RES ovarian,> 100 µM
same,TGI,OVCAR-3 ovarian,90.1 µM
same,TGI,OVCAR-4 ovarian,23.6 µM
same,TGI,OVCAR-5 ovarian,73.5 µM
same,TGI,OVCAR-8 ovarian,> 100 µM
same,TGI,PC-3 prostate,73.6 µM
same,TGI,RPMI-8226 leukemia,42.6 µM
same,TGI,RXF 393 renal,63.6 µM
same,TGI,SF-268 CNS,> 100 µM
same,TGI,SF-295 CNS,36.9 µM
same,TGI,SF-539 CNS,53.1 µM
same,TGI,SK-MEL-2 melanoma,38.2 µM
same,TGI,SK-MEL-5 melanoma,30.1 µM
same,TGI,SK-OV-3 ovarian,80 µM
same,TGI,SN12C renal,34.7 µM
same,TGI,SNB-19 CNS,37.7 µM
same,TGI,SR leukemia,46.5 µM
same,TGI,SW-620 colon,65.9 µM
same,TGI,T-47D breast,99.2 µM
same,TGI,TK-10 renal,51.7 µM
same,TGI,U251 CNS,34.4 µM
same,TGI,UACC-257 melanoma,46.8 µM
same,TGI,UACC-62 melanoma,28.8 µM
same,TGI,UO-31 renal,69.1 µM
CC(C)C(=O)Nc1cc(C(F)(F)F)ccc1[N+](=O)[O-],TGI,786-0 renal,> 100 µM
same,TGI,A498 renal,> 100 µM
same,TGI,A549 NSCLC,> 100 µM
same,TGI,ACHN renal,> 100 µM
same,TGI,BT-549 breast,> 100 µM
same,TGI,CAKI-1 renal,> 100 µM
same,TGI,CCRF-CEM leukemia,> 100 µM
same,TGI,COLO 205 colon,> 100 µM
same,TGI,DU-145 prostate,> 100 µM
same,TGI,EKVX NSCLC,> 100 µM
same,TGI,HCC-2998 colon,> 100 µM
same,TGI,HCT-116 colon,> 100 µM
same,TGI,HCT-15 colon,> 100 µM
same,TGI,HL-60(TB) leukemia,> 100 µM
same,TGI,HOP-62 NSCLC,> 100 µM
same,TGI,HOP-92 NSCLC,> 100 µM
same,TGI,HS 578T breast,> 100 µM
same,TGI,HT29 colon,> 100 µM
same,TGI,IGROV1 ovarian,> 100 µM
same,TGI,K-562 leukemia,> 100 µM
same,TGI,KM12 colon,> 100 µM
same,TGI,LOX IMVI melanoma,> 100 µM
same,TGI,M14 melanoma,> 100 µM
same,TGI,MALME-3M melanoma,> 100 µM
same,TGI,MCF7 breast,> 100 µM
same,TGI,MDA-MB-231 breast,> 100 µM
same,TGI,MDA-MB-435,> 100 µM
same,TGI,MDA-N,> 100 µM
same,TGI,MOLT-4 leukemia,> 100 µM
same,TGI,NCI-H226 lung,> 100 µM
same,TGI,NCI-H23 lung,> 100 µM
same,TGI,NCI-H460 lung,> 100 µM
same,TGI,NCI-H522 lung,> 100 µM
same,TGI,NCI/ADR-RES ovarian,> 100 µM
same,TGI,OVCAR-3 ovarian,> 100 µM
same,TGI,OVCAR-4 ovarian,> 100 µM
same,TGI,OVCAR-5 ovarian,> 100 µM
same,TGI,OVCAR-8 ovarian,> 100 µM
same,TGI,PC-3 prostate,> 100 µM
same,TGI,RPMI-8226 leukemia,> 100 µM
same,TGI,RXF 393 renal,> 100 µM
same,TGI,SF-268 CNS,> 100 µM
same,TGI,SF-295 CNS,> 100 µM
same,TGI,SF-539 CNS,> 100 µM
same,TGI,SK-MEL-2 melanoma,> 100 µM
same,TGI,SK-MEL-28 melanoma,> 100 µM
same,TGI,SK-MEL-5 melanoma,> 100 µM
same,TGI,SK-OV-3 ovarian,> 100 µM
same,TGI,SN12C renal,> 100 µM
same,TGI,SNB-19 CNS,> 100 µM
same,TGI,SW-620 colon,> 100 µM
same,TGI,T-47D breast,> 100 µM
same,TGI,TK-10 renal,> 100 µM
same,TGI,U251 CNS,> 100 µM
same,TGI,UACC-257 melanoma,> 100 µM
same,TGI,UACC-62 melanoma,> 100 µM
same,TGI,UO-31 renal,> 100 µM
CCOC(=O)C(Cc1ccc(OC(=O)c2ccc(OC)cc2)cc1)NC(=O)C(F)(F)F (centres undefined),TGI,786-0 renal,> 100 µM
same,TGI,A498 renal,> 100 µM
same,TGI,A549 NSCLC,> 100 µM
same,TGI,ACHN renal,> 100 µM
same,TGI,BT-549 breast,> 100 µM
same,TGI,CAKI-1 renal,> 100 µM
same,TGI,CCRF-CEM leukemia,> 100 µM
same,TGI,COLO 205 colon,> 100 µM
same,TGI,DU-145 prostate,> 100 µM
same,TGI,EKVX NSCLC,> 100 µM
same,TGI,HCC-2998 colon,> 100 µM
same,TGI,HCT-116 colon,> 100 µM
same,TGI,HCT-15 colon,> 100 µM
same,TGI,HL-60(TB) leukemia,> 100 µM
same,TGI,HOP-62 NSCLC,> 100 µM
same,TGI,HOP-92 NSCLC,> 100 µM
same,TGI,HS 578T breast,> 100 µM
same,TGI,HT29 colon,> 100 µM
same,TGI,IGROV1 ovarian,> 100 µM
same,TGI,K-562 leukemia,> 100 µM
same,TGI,KM12 colon,> 100 µM
same,TGI,LOX IMVI melanoma,> 100 µM
same,TGI,M14 melanoma,> 100 µM
same,TGI,MALME-3M melanoma,> 100 µM
same,TGI,MCF7 breast,> 100 µM
same,TGI,MDA-MB-231 breast,> 100 µM
same,TGI,MDA-MB-435,> 100 µM
same,TGI,MDA-N,> 100 µM
same,TGI,MOLT-4 leukemia,> 100 µM
same,TGI,NCI-H226 lung,> 100 µM
same,TGI,NCI-H23 lung,> 100 µM
same,TGI,NCI-H460 lung,> 100 µM
same,TGI,NCI-H522 lung,> 100 µM
same,TGI,NCI/ADR-RES ovarian,> 100 µM
same,TGI,OVCAR-3 ovarian,> 100 µM
same,TGI,OVCAR-4 ovarian,> 100 µM
same,TGI,OVCAR-5 ovarian,> 100 µM
same,TGI,OVCAR-8 ovarian,> 100 µM
same,TGI,PC-3 prostate,> 100 µM
same,TGI,RPMI-8226 leukemia,> 100 µM
same,TGI,RXF 393 renal,73.2 µM
same,TGI,SF-268 CNS,> 100 µM
same,TGI,SF-295 CNS,> 100 µM
same,TGI,SF-539 CNS,> 100 µM
same,TGI,SK-MEL-2 melanoma,> 100 µM
same,TGI,SK-MEL-5 melanoma,> 100 µM
same,TGI,SK-OV-3 ovarian,> 100 µM
same,TGI,SN12C renal,> 100 µM
same,TGI,SNB-19 CNS,> 100 µM
same,TGI,SNB-75 CNS,46.5 µM
same,TGI,SW-620 colon,> 100 µM
same,TGI,T-47D breast,> 100 µM
same,TGI,TK-10 renal,> 100 µM
same,TGI,U251 CNS,> 100 µM
same,TGI,UACC-257 melanoma,> 100 µM
same,TGI,UACC-62 melanoma,> 100 µM
same,TGI,UO-31 renal,> 100 µM
